Experimental data from the NIST ThermoML archive (doi:10.1007/s10765-005-8089-2).
Numbers after ± are expanded uncertainties.

Test: xn = mol fraction of the nth substance listed
Details: Liquid, Falling or rolling sphere viscometry

Cc1ccccc1 [toluene] + CCO
viscosity [mPa·s]
Details | x2 = 0.125 | x2 = 0.25 | x2 = 0.375 | x2 = 0.5 | x2 = 0.625 | x2 = 0.75 | x2 = 0.875
293.15 K, 100 kPa | 0.588 ± 0.013 | 0.609 ± 0.013 | 0.652 ± 0.014 | 0.71 ± 0.015 | 0.79 ± 0.017 | 0.899 ± 0.019 | 1.023 ± 0.022
293.15 K, 20000 kPa | 0.68 ± 0.015 | 0.71 ± 0.015 | 0.754 ± 0.016 | 0.815 ± 0.017 | 0.909 ± 0.019 | 1.014 ± 0.022 | 1.157 ± 0.025
293.15 K, 40000 kPa | 0.781 ± 0.017 | 0.816 ± 0.017 | 0.866 ± 0.019 | 0.931 ± 0.02 | 1.034 ± 0.022 | 1.152 ± 0.025 | 1.306 ± 0.028
293.15 K, 60000 kPa | 0.893 ± 0.019 | 0.931 ± 0.02 | 0.986 ± 0.021 | 1.055 ± 0.023 | 1.166 ± 0.025 | 1.297 ± 0.028 | 1.457 ± 0.031
293.15 K, 80000 kPa | 1.016 ± 0.022 | 1.054 ± 0.023 | 1.114 ± 0.024 | 1.187 ± 0.025 | 1.302 ± 0.028 | 1.444 ± 0.031 | 1.604 ± 0.034
293.15 K, 100000 kPa | 1.153 ± 0.025 | 1.189 ± 0.025 | 1.251 ± 0.027 | 1.331 ± 0.029 | 1.449 ± 0.031 | 1.6 ± 0.034 | 1.757 ± 0.038
313.15 K, 100 kPa | 0.462 ± 0.01 | 0.471 ± 0.01 | 0.49 ± 0.011 | 0.525 ± 0.011 | 0.574 ± 0.012 | 0.635 ± 0.014 | 0.717 ± 0.015
313.15 K, 20000 kPa | 0.538 ± 0.012 | 0.549 ± 0.012 | 0.573 ± 0.012 | 0.611 ± 0.013 | 0.662 ± 0.014 | 0.729 ± 0.016 | 0.825 ± 0.018
313.15 K, 40000 kPa | 0.619 ± 0.013 | 0.632 ± 0.014 | 0.658 ± 0.014 | 0.699 ± 0.015 | 0.757 ± 0.016 | 0.83 ± 0.018 | 0.932 ± 0.02
313.15 K, 60000 kPa | 0.705 ± 0.015 | 0.718 ± 0.015 | 0.747 ± 0.016 | 0.792 ± 0.017 | 0.854 ± 0.018 | 0.933 ± 0.02 | 1.039 ± 0.022
313.15 K, 80000 kPa | 0.796 ± 0.017 | 0.81 ± 0.017 | 0.841 ± 0.018 | 0.889 ± 0.019 | 0.955 ± 0.021 | 1.038 ± 0.022 | 1.147 ± 0.025
313.15 K, 100000 kPa | 0.893 ± 0.019 | 0.907 ± 0.019 | 0.94 ± 0.02 | 0.991 ± 0.021 | 1.058 ± 0.023 | 1.145 ± 0.025 | 1.255 ± 0.027
333.15 K, 100 kPa | 0.37 ± 0.008 | 0.373 ± 0.008 | 0.385 ± 0.008 | 0.405 ± 0.009 | 0.431 ± 0.009 | 0.468 ± 0.01 | 0.523 ± 0.011
333.15 K, 20000 kPa | 0.433 ± 0.009 | 0.437 ± 0.009 | 0.45 ± 0.01 | 0.47 ± 0.01 | 0.501 ± 0.011 | 0.544 ± 0.012 | 0.603 ± 0.013
333.15 K, 40000 kPa | 0.499 ± 0.011 | 0.503 ± 0.011 | 0.518 ± 0.011 | 0.54 ± 0.012 | 0.573 ± 0.012 | 0.621 ± 0.013 | 0.684 ± 0.015
333.15 K, 60000 kPa | 0.568 ± 0.012 | 0.571 ± 0.012 | 0.588 ± 0.013 | 0.611 ± 0.013 | 0.647 ± 0.014 | 0.697 ± 0.015 | 0.763 ± 0.016
333.15 K, 80000 kPa | 0.639 ± 0.014 | 0.643 ± 0.014 | 0.662 ± 0.014 | 0.686 ± 0.015 | 0.724 ± 0.016 | 0.776 ± 0.017 | 0.844 ± 0.018
333.15 K, 100000 kPa | 0.714 ± 0.015 | 0.718 ± 0.015 | 0.739 ± 0.016 | 0.763 ± 0.016 | 0.804 ± 0.017 | 0.856 ± 0.018 | 0.926 ± 0.02
353.15 K, 100 kPa | 0.306 ± 0.007 | – | – | – | – | – | –
353.15 K, 20000 kPa | 0.358 ± 0.008 | 0.356 ± 0.008 | 0.361 ± 0.008 | 0.372 ± 0.008 | 0.39 ± 0.008 | 0.415 ± 0.009 | 0.453 ± 0.01
353.15 K, 40000 kPa | 0.412 ± 0.009 | 0.411 ± 0.009 | 0.417 ± 0.009 | 0.427 ± 0.009 | 0.446 ± 0.01 | 0.476 ± 0.01 | 0.516 ± 0.011
353.15 K, 60000 kPa | 0.468 ± 0.01 | 0.467 ± 0.01 | 0.474 ± 0.01 | 0.484 ± 0.01 | 0.504 ± 0.011 | 0.536 ± 0.012 | 0.577 ± 0.012
353.15 K, 80000 kPa | 0.526 ± 0.011 | 0.525 ± 0.011 | 0.532 ± 0.011 | 0.541 ± 0.012 | 0.564 ± 0.012 | 0.597 ± 0.013 | 0.64 ± 0.014
353.15 K, 100000 kPa | 0.588 ± 0.013 | 0.586 ± 0.013 | 0.593 ± 0.013 | 0.601 ± 0.013 | 0.625 ± 0.013 | 0.66 ± 0.014 | 0.703 ± 0.015
